Measurements: patent US20260216063A1, “METHODS OF SUPPRESSING FREE DNA AND COMPOSITIONS THEREOF” (PS Therapy, Inc., priority 2023, published 2026)

Key:
[1] = test system: TNF-alpha; assay: TNF-alpha ELISA in differentiated THP-1 cells infected with P. aeruginosa DNA; assay type: cell-based, human; settings: 6 micrograms P. aeruginosa DNA, 24 hours post infection; DNA alone 1,200
Method: 3 sets of differentiated THP-1 cells were infected with 6 micrograms of […], 6 micrograms of P. aeruginosa DNA and composition A from Table 1, above, 6 micrograms of P. aeruginosa DNA and moxifloxacin, or 6 micrograms of P. aeruginosa DNA, moxifloxacin and composition A. 24 hours post infection the cells were assayed for TNF-alpha protein levels via ELISA. Results of this study can be found in FIGS. 3A and 3B.

[2] = test system: TNF-alpha; assay: TNF-alpha ELISA in differentiated THP-1 cells infected with A. flavus DNA; assay type: cell-based, human; settings: 6 micrograms A. flavus DNA, 24 hours post infection; DNA alone 180
Source text: Tumor Necrosis Factor alpha secretion (“TNF-alpha”) is a marker for DNA-induced inflammation. See, Campbell et al., CpG-containing immunostimulatory DNA sequences elicit TNF-alpha-dependent toxicity in rodents but not in humans, 2009, J Clin Invest, 119(9), 2564-2576. 3 sets of differentiated human leukemia monocytic (“differentiated THP-1”) cells were infected with 6 micrograms of A. flavus DNA, 6 micrograms of A. flavus DNA and composition A, 6 micrograms of A. flavus DNA and voriconazole, or 6 micrograms of A. flavus DNA, voriconazole and composition A. 24 hours post infection the cells were assayed for TNF-alpha protein levels via enzyme-linked immunosorbent assays (“ELISA”). Results of this study can be found in FIGS. 2A and 2B.
6 sets of differentiated THP-1 cells were infected with 1) nothing, 2) lipofectamine™ 2000 transfectin reagent, 3) 6 micrograms of A. flavus DNA, 4) 6 micrograms of A. flavus DNA and composition #1 from Table 1, above, 5) 6 micrograms of A. flavus DNA and composition #2 from Table 1, above, 6) 6 micrograms of A. flavus DNA and composition #3 from Table 1, above. 24 hours post infection the cells were assayed for TNF-alpha protein levels via ELISA.

[3] = test system: free DNA; assay: Free DNA binding, ethidium bromide displacement assay; settings: incubated with free DNA in a petri dish
Method: Voriconazole, moxifloxacin, composition A from Table 1, above, a combination of voriconazole and composition A and a combination of moxifloxacin and composition A were each individually incubated with free DNA in a petri dish with and without the addition of voriconazole or moxifloxacin. The percentage of free DNA bound was measured using an ethidium bromide displacement assay. See results in FIG. 1.
Compositions #1-3 from Table 1, above, were each individually incubated with free DNA in a petri dish at concentrations of 1% and 10% in PBS buffer. The percentage of free DNA bound was measured using an ethidium bromide displacement assay.

percentage of free DNA bound [3]	Compound	TNF-alpha protein levels [1]	TNF-alpha protein levels [2]
	COc1c(N2C[C@@H]3CCCN[C@@H]3C2)c(F)cc2c(=O)c(C(=O)O)cn(C3CC3)c12 [moxifloxacin]	450 picograms per milliliter	
0%	C[C@@H](c1ncncc1F)[C@](O)(Cn1cncn1)c1ccc(F)cc1F [voriconazole]		85 picograms per milliliter
